Test system: retinal precursor cells
Assay: Sphere passaging and high-throughput drug screening: proliferation of retinal precursor cells from the ciliary epithelium, cell number after one week
Assay type: cell-based, mammalian
Details: for Cell proliferation within one week [%]: control experiment (absence of a compound) = 100, cells grown for one week
Experimental: Kynurenic Acid (0.2 mg/mL), trypsin (1.33 mg/mL), and hyaluronidase (0.67 mg/mL) were weighed out and dissolved in high magnesium/low calcium artificial cerebral spinal fluid (aCSF) at 37° C. Fibroblast growth factor 2 (FGF2; 10 ng/mL) and heparin (2 μg/mL) were added to 100 mL of serum-free media (SFM). Ovomucoid trypsin inhibitor (1 mg/mL) was dissolved in warm SFM and sterile filtered ([…]).
A dissecting microscope, cold light source, and sterile surgical instruments were set up inside of a sterile biological safety cabinet (BSC). Mammalian eyes were enucleated and placed in a petri dish containing cold, sterile aCSF. Under the dissecting microscope, hair, connective tissue, and the dorsal and ventral oblique muscles were cleared from the scleral/corneal border with two sets of forceps. Next, curved or angled micro-dissecting scissors were used to cleave any remaining extraocular muscle tissue, the optic nerve, and cut the eyeball into symmetrical halves; beginning and finishing the cut from the hole left by the optic nerve. Using two sets of forceps to grasp the cornea, the two eye halves were peeled apart. The lens, optic nerve, and vitreous were separated from the eye shells and the eye shells were transferred into a new petri dish (also containing cold, sterile aCSF). To isolate the ciliary epithelium (CE), eye shells were oriented with the cornea on the right and retinal pigmented epithelium (RPE) on the left. A pair of straight forceps were used to pin down the eye shell on the RPE side while a scalpel blade was inserted between the CE and the iris, using pressure to slice the iris/cornea side off from the rest of the shell. Next, the scalpel was run along the border between the CE and the RPE to obtain the CE isolated as a thin strip of tissue. The CE strips were then transferred to a 35 mm dish containing 2 mL of dispase solution (Sigma; T1005) and incubated for 10 minutes at 37° C. Next, the strips were transferred from dispase into a 35 mm dish containing 2 mL of sterile filtered kynurenic acid, trypsin and hyaluronidase solution and incubated at 37° C. for 10 minutes. After incubation, the dish was returned to the dissecting scope, and the CE strips were pinned down with straight, non-serrated forceps, while non-serrated curved forceps were used to scrape the CE off from the underlying sclera. The bare scleral strips were then discarded, such that only the CE cells remained in the enzyme solution. Using a fire-polished, cotton-plugged glass pipette, the cells and enzyme solution were transferred to a 15 mL tube and triturated approximately 45 times to break apart the tissue. The 15 mL tube/cell suspension was centrifuged for 5 minutes at 1500 rpm. The supernatant was gently aspirated from the resulting pellet using a fire-polished, cotton-plugged glass pipette and 2 mL of trypsin inhibitor solution was added to the pellet. Using a small borehole, fire-polished, cotton-plugged glass pipette, the sample was triturated approximately 45 times until it was a single-cell suspension. The 15 mL tube/cell suspension was centrifuged for 5 minutes at 1500 rpm. The supernatant was gently aspirated from the resulting pellet and 1-2 mL of SFM with FGF2 and heparin (plating media) was added. The cells and media were mixed to ensure a uniform cell suspension and a 10 uL sample was taken and cell density was determined. The cells were then seeded and cultured at 10c/μL in culture-treated plates or flasks. After one week, roughly 1 in 500 cells proliferated to form free-floating, clonal spheres greater than 80 μm in diameter.
Human-derived spheres were passaged using the kynurenic acid, trypsin, hyaluronidase enzyme solution with the addition of collagenase I (0.5 mg/mL), collagenase II (0.5 mg/mL) and elastase (0.1 mg/mL). Mouse-derived spheres were passaged using hyaluronidase (0.67 mg/mL), collagenase I (0.5 mg/mL), and collagenase II (0.5 mg/mL) dissolved in Accustase solution (Sigma; SCR005). […]

O=C(Nc1ccc(-c2cnco2)c(Cl)c1)C1COc2ccccc2O1 (racemic) [Compound 41, N-(3-chloro-4-(oxazol-5-yl)phenyl)-2,3-dihydrobenzo[b][1,4]dioxine-2-carboxamide]
Cell proliferation within one week [%]: 114%

N-(2-(difluoromethoxy)-4-(oxazol-5-yl)phenyl)chroman-3-carboxamide [Compound 27]
Cell proliferation within one week [%]: 106%

COc1ccc2c(c1)OC(C(=O)Nc1ccc(-c3cnco3)c(Cl)c1)CO2 (racemic) [Compound 8, N-(3-chloro-4-(oxazol-5-yl)phenyl)-7-methoxy-2,3-dihydrobenzo[b][1,4]dioxine-2-carboxamide]
Cell proliferation within one week [%]: 117%

COc1ccc2c(c1)CC(C(=O)Nc1ccc(-c3cnco3)c(Cl)c1)CO2 (racemic) [Compound 3, N-(3-chloro-4-(oxazol-5-yl)phenyl)-6-methoxychromane-3-carboxamide]
Cell proliferation within one week [%]: 138%

N-(2-(difluoromethoxy)-4-(oxazol-5-yl)phenyl)chroman-3-carboxamide [Compound 26]
Cell proliferation within one week [%]: 138%

COc1cc(NC(=O)C2COc3ccccc3O2)ccc1-c1ccncc1 (racemic) [Compound 19, N-(3-methoxy-4-(pyridin-4-yl)phenyl)-2,3-dihydrobenzo[b][1,4]dioxine-2-carboxamide]
Cell proliferation within one week [%]: 110%

O=C(Nc1ccc(-c2cnco2)cc1OC(F)F)C1COc2ccccc2C1 (racemic) [Compound 24, N-(2-(difluoromethoxy)-4-(oxazol-5-yl)phenyl)chroman-3-carboxamide]
Cell proliferation within one week [%]: 126%

COc1ccc2c(c1)CC(C(=O)Nc1ccc(-c3ccncc3)c(OC)c1)CO2 (racemic) [Compound 16, 6-methoxy-N-(3-methoxy-4-(pyridin-4-yl)phenyl)chromane-3-carboxamide]
Cell proliferation within one week [%]: 143%
increase of cell proliferation (within one week, over control): 43%

O=C(Nc1ccc(-c2cnco2)c(F)c1)C1CCOc2ccccc21 (racemic) [Compound 4, N-(3-fluoro-4-(oxazol-5-yl)phenyl)chromane-4-carboxamide]
Cell proliferation within one week [%]: 106%

O=C(Nc1ccc(-n2cncn2)c(C(F)(F)F)c1)C1COc2ccccc2C1 (racemic) [Compound 28, N-(4-(1H-1,2,4-triazol-1-yl)-3-(trifluoromethyl)phenyl)chromane-3-carboxamide]
Cell proliferation within one week [%]: 118%

O=C(Nc1ccc(-c2cnco2)c(Cl)c1)C1COc2ccccc21 (racemic) [Compound 35, N-(3-chloro-4-(oxazol-5-yl)phenyl)-2,3-dihydrobenzofuran-3-carboxamide]
Cell proliferation within one week [%]: 125%

Reference: patent US12195452B2, “N-(4-(oxazol-5-yl)phenyl) chromane-3-carboxamide derivatives and related compounds as stimulators of the production of retinal precursor cells for the treatment of neuroretinal diseases” (ENDOGENA THERAPEUTICS, INC., priority 2018, dated 2025)
